Measured values as given in a melting point compilation (Tetko et al.).

Settings: a range is the spread between reports

SMILES	melting point [°C]
O=C(C=Cc1ccccc1)c1ccc(Cl)cc1	96 to 99
CN(C)c1cccc(O)c1	82 to 86
O=Cc1ccc(Cl)cc1	46 to 48.5
Brc1cscc1Br	4.5 to 5
CNc1ccccc1C(=O)OC	18 to 19
CCCC(C)C1(CC)C(=O)NC(=O)NC1=O (stereo not drawn)	130
CCC1(c2ccccc2)CCC(=O)NC1=O (stereo not drawn)	84 to 87.5
CCCCCCCCCCCC(C)O (stereo not drawn)	23 to 25
S=C1NCCS1	105 to 106
O=Cc1ccnc2ccccc12	50 to 51
Cc1ccc(C(=O)Cl)cc1	-3 to -2
CC=C1CCCC1	-130
Clc1ccc2cc[nH]c2c1	89 to 90
Nc1ccc([N+](=O)[O-])cc1N	199 to 201
Nc1cccc(C(F)(F)F)c1	5.5 to 6
CC1=CC(=O)C=C(C)C1=O	70 to 72.5
N#CC(C#N)=C(C#N)C#N	198 to 199
O=C1OC(c2ccc(O)cc2)(c2ccc(O)cc2)c2ccccc21	260 to 262
COC=O	-100 to -99
CC(C(=O)O)(c1ccccc1)c1ccccc1	173 to 176
CCOC(=O)C(=O)Nc1ccccc1	65.5 to 67
N#CCC(=O)O	66 to 67
Cc1ccccc1Cc1ccccc1	6.6 to 7
COc1ccc2ccccc2c1C=O	83 to 84

SMILES	melting point [°C]
N#CCc1cccc(Cl)c1	11.5 to 12
CCCC(=O)OCC	-98 to -93
Cc1cc([N+](=O)[O-])ccc1N	132 to 134
O=C(O)c1ccccc1I	162 to 163
O=CC1CCCCC1	34.5 to 35
CC(C)(C)CC(=O)O	6 to 6.5
CCCCC(=O)CC	-39 to -37
O=C(c1ccccc1)c1c(F)c(F)c(F)c(F)c1F	37 to 38
c1ccc(-c2cccc(-c3ccccn3)n2)nc1	90 to 91
CCCCCCCCCCCCI	-3 to 0.3
Cc1ccc(C)c(C(=O)O)c1	132 to 134
Nc1cccc(Br)c1	16 to 18.5
CCC(C)(C)Cl	-74 to -73
Cc1cc(C)c(C)c(O)c1	93.5 to 94
COCCOC(C)=O	-65.1 to -65
O=C1C(Br)=CC(=NCl)C=C1Br	80 to 83
O=C(O)c1cc(Cl)ccc1O	171 to 174
O=C1C=CC(=O)C2C3C=CC(C3)C12 (stereo not drawn)	73 to 77.5
CCNc1ccc([N+](=O)[O-])cc1	96 to 97
c1csc(-c2ccc(-c3cccs3)s2)c1	92 to 93.5
Cc1ccc2ccccc2c1	33 to 34.4
Sc1ccccn1	127 to 129
O=C(O)c1ccc(CBr)cc1	225 to 230
O=C(/C=C/c1ccc2ccccc2c1)/C=C/c1ccc2ccccc2c1	242 to 245

SMILES	melting point [°C]
O=C1C(=O)c2cccc3cccc1c23	258 to 261
CC(=O)CCCC(=O)O	12 to 13.5
COP(=S)(OC)Oc1ccc([N+](=O)[O-])cc1	35.5 to 36
O=Cc1cccc(O)c1	104 to 108
Cc1csc(N)n1	44 to 45.5
Cc1cc(O)c(C(C)C)cc1Cl	59 to 63
CCn1c2ccccc2c2ccccc21	68 to 69
O=C(O)C=Cc1cccc(Br)c1	177 to 180
CCOS(=O)(=O)c1ccc(C)cc1	32 to 34.5
O=C(O)CCCCCCCBr	38.5 to 39
CC(C)(N)CO	25.5 to 30
CCC#N	-93 to -92
O=C(O)c1ccc([N+](=O)[O-])cc1[N+](=O)[O-]	181 to 182
O=C1CNC(=O)N1	220 to 222
Cc1cc(C)cc(N)c1	9.8 to 10
CCOC(=O)c1cccc([N+](=O)[O-])c1	42 to 47
O=C(O)Cc1cccc([N+](=O)[O-])c1	118 to 119
Cc1cc(O)ccc1O	128 to 129
Oc1ccc(Cl)cc1Cl	42 to 45
COc1ccccc1-c1ccccc1	29 to 31
Oc1cccc(O)c1O	132 to 134
O=C(c1ccccc1)c1ccc(O)cc1O	144 to 146
CN(C)c1ccc(/N=N/c2ccccc2C(=O)O)cc1	180 to 183
CCCCCCCCCCCCCCCCCCS	30 to 32

SMILES	melting point [°C]
O=[N+]([O-])c1c(Cl)c(Cl)c(Cl)c(Cl)c1Cl	142 to 144
CCCCCCCCCCCCCCCCCCCCCCCCCCCCCCCCCCCCCCCC	81 to 82
CCN1CCOCC1	-64 to -63
CC(C)c1ccc(C(=O)O)cc1	118 to 119
CCC(C(=O)O)C(=O)O	113 to 114
N#Cc1c(F)c(F)c(F)c(C#N)c1F	77 to 79
CC(=O)Nc1nnc(S(N)(=O)=O)s1	258 to 260
CCOC(=O)C(O)(c1ccc(Cl)cc1)c1ccc(Cl)cc1	36 to 37
O=C(O)C1CC1	15.5 to 18.5
O=C(O)c1ccccc1F	124 to 126
CCCOc1ccccc1	-28 to -27
Clc1cc(Cl)c(Cl)cc1Cl	139 to 140
O=[N+]([O-])c1ccc(Cl)c(Cl)c1Cl	55 to 56
CCCCCCCCCCCCCCCCCC(=O)O	68 to 71
CCC1(C)CC1	-130
C1=CCC=CC1	-49.2 to -49
Nc1ccc(S(=O)(=O)Nc2nccs2)cc1	200 to 202
O=[N+]([O-])c1cc(Cl)ccc1O	87 to 89
CCCCC(=O)c1ccccc1	-9.4 to -9
Cc1ccncc1	3 to 3.66
Cc1ccc(N)cc1F	31 to 33
Oc1ccc2c(c1)CCCC2	57 to 62
O=C(O)c1cccc(F)c1F	162 to 164
CC(=O)CCC=C(C)C	-67.1 to -67

SMILES	melting point [°C]
O=[N+]([O-])c1cccc2ccccc12	57 to 62
CCOc1ccccc1O	26 to 29
C=CCc1ccc(O)c(OC)c1	-10 to -9
CC(C)C(N)=O	128 to 129
CCc1ccc(C(=O)O)cc1	112 to 113
CC(Br)CCCBr (stereo not drawn)	-34.4 to -34
CN(C)C(N)=O	180 to 184
COc1ccc(C=O)c(OC)c1	69 to 72
CCCCCCCCCCI	-16.3 to -16
CC(C)(O)C(C)(C)O	43 to 44
O=C(O)/C=C/c1ccccc1[N+](=O)[O-]	244 to 247
C=C(C)CCCCCC	-78 to -77.8
CC(=O)NS(=O)(=O)c1ccc(N)cc1	182 to 183
Nc1c(Cl)cc(Cl)cc1Br	80 to 83.5
CCCCCCCCCCBr	-30 to -29
COc1ccc(C=O)c2ccccc12	34 to 34.8
N#CCC#N	32 to 34
COC(C)OC	-113
COc1cc(Cl)ccc1N	51 to 52
Oc1ccc(Br)cc1Br	37 to 40
C=Cc1cccc([N+](=O)[O-])c1	-10 to -5
O=C(O)c1cccc(Br)c1	155 to 157
CC1(C)CC(=O)CC(=O)C1	148
CCCCCCCCCC(C)=O	12 to 15

SMILES	melting point [°C]
CCCCNC(N)=O	95 to 97
CCCCOC(=O)c1ccc(O)cc1	68.5 to 72
O=C(C=Cc1cccc([N+](=O)[O-])c1)c1ccccc1	146
O=Cc1ccc(CO)o1	31.5 to 34
CCOS(=O)(=O)OCC	-25 to -24
N#Cc1ccc(O)cc1	112
O=C(O)c1ccc2c(c1)C(=O)OC2=O	162 to 167
CC(=O)Nc1cccc([N+](=O)[O-])c1	152 to 155
COS(=O)(=O)OC	-32 to -27
CC(C)(C)CCC(C)(C)C	-13 to -12.6
O=C(c1cccs1)c1cccs1	89 to 90
COc1ccc(NC(C)=O)cc1	127 to 131
O=S(=O)(c1ccccc1)c1ccccc1	128
C=CCCCCCCCCCCCCC	-4 to -2.8
O=C(c1ccccc1)c1ccc(C(F)(F)F)cc1	115 to 118
NS(=O)(=O)c1ccc([N+](=O)[O-])cc1	179 to 180
COC(C)(C)C	-109
CC(=O)NCCCCCC(=O)O	104
CCCC1CCCC1	-117
CCC(=O)c1ccc(C)cc1	7 to 7.2
Cc1c[nH]c2ccccc12	95
O=Cc1ccccc1C(=O)O	97 to 99
C[Si]1(C)N[Si](C)(C)N[Si](C)(C)N[Si](C)(C)N1	96 to 97.5
Nc1ccccc1Br	29 to 32

SMILES	melting point [°C]
CC(=O)c1ccc([N+](=O)[O-])cc1	79 to 81.8
O=Cc1ccccc1F	-45 to -44.5
CC(=O)/C=C/c1ccccc1	40 to 42
CCCCS	-116
c1cc2c3c(c1)ccc1cccc(c13)C2	114 to 116
O=C1c2ccccc2Cc2ccccc21	155 to 157
Nc1ccccc1-c1ccccc1	49 to 51.5
Nc1cccc2ccccc12	48 to 49.2
O=C1C(=O)c2ccccc2-c2ccccc21	206 to 210
CC(C)(C)Cl	-26 to -25
CCOc1ccc(C=O)cc1	13.5 to 14
CCOc1ccc(C#N)cc1	61.5 to 62
O=C(O)CCCl	39 to 41
Cc1cc(Br)ccc1Br	5 to 6
c1ccc(-c2nc3ccccc3s2)cc1	114 to 115
Nc1c(Br)cc([N+](=O)[O-])cc1[N+](=O)[O-]	152 to 154
Cn1ccc(=O)n(C)c1=O	120 to 121
C=Cn1c2ccccc2c2ccccc21	63 to 65
CCBr	-119
CC(C)c1ccccc1Cl	-74.4 to -74
Cc1ccc(S(=O)(=O)c2ccc(C)cc2)cc1	157 to 159
COc1ccc2nc(N)sc2c1	163 to 166
Cc1ccc(O)c(C(=O)O)c1	151 to 153
CC(=O)O[Si](C)(OC(C)=O)OC(C)=O	40.5 to 43
